US7803825B2, “Aminoalkylazole derivatives as histamine-3 antagonists” (Wyeth LLC, priority 2007, dated 2010)
Counter-ions that a name gives are not always drawn.

Target: T1, histamine-3 (H3) receptor (Homo sapiens, UniProt Q9Y5N1)
T1 construct: expressed in transfected cells; host or cells: HEK293T
Assay: Methyl Histamine Binding in Human Histamine-3 Receptor Cell Line
Details: membranes of stably transfected HEK293T cells, radioligand 1 nM, Ki from IC50 by Cheng-Prusoff
Method: Evaluation of Methyl Histamine Binding in Human Histamine-3 Receptor Cell Line
The affinity of test compounds for the histamine-3 (H3) receptor is evaluated in the following manner. Stably transfected HEK293T cells are grown in DMEM containing 10% heat inactivated FBS and G-418 (500 ug/ml). Cells are scraped from the plate, transferred to centrifuge tubes, washed one time in PBS by centrifugation in a Sorvall RT7 Plus centrifuge (2000 rpm 10 minutes, 4° C.). The resulting pellets are stored at 80° C. until ready for use. Cells are re-suspended in buffer (50 mM Tris pH=7.5) and placed in a Dounce homogenizer, douncing ten times to homogenize cells. The homogenate is spun down by centrifugation (Sorvall RT7 Plus, 1800 rpm 10 minutes, 4° C.). The supernatant is placed in a Corex tube and spun down by centrifugation (Sorvall RC 5c Plus, 17,000 rpm 20 minutes, 4° C.). The pellet is resuspended in buffer (50 mM Tris, pH 7.5). Protein concentration (ug/ul) is determined using the Micro-BCA Protein Determination. The binding assay is set up in a 96 well microtiter plate in a total volume of 250 uL. Non-specific binding is determined in the presence of 10 uM clobenpropit. The final radioligand concentration is 1 nM. The test compound is serially diluted using the Beckman Biomek2000 to a final approximate range of 100 uM to 100 pM. Membranes are suspended in buffer, homogenized in 2 bursts of ten seconds using a Vitris mechanical homogenizer set at power setting 5. Ten μg of membranes are added to each well. Following a one hour incubation at 30° C., the reaction is terminated by the addition of ice cold buffer and rapid filtration with a Packard Filtermate Harvester through a GF/B filter pre-soaked with 1% PEI for one hour. The plate is dried for one hour at 37° C. and 60 μL Microscint Scintillant is added to each well. The CPM per well is measured on a Packard Top Count NXT. Ki values are determined in nM. The Ki is calculated from the IC50 (i.e. the concentration of competing ligand which displaces 50% of the specific binding of the radioligand). CPM values are expressed as % specific binding and plotted vs compound concentration. A curve is fitted using a four-parameter logistic fit and the IC50 value is determined. The Ki is calculated from this using the Cheng-Prusoff equation: […]=IC50/1+(L/Kd) where L=concentration of free radioligand used in the assay, and Kd is the dissociation constant of the radioligand for the receptor. L is determined for each experiment by counting an aliquot of the diluted radioligand (corresponding to that added to each well) and the Kd has previously been determined under identical conditions for this cell line/radioligand.

T1 sequence (Q9Y5N1 whole entry): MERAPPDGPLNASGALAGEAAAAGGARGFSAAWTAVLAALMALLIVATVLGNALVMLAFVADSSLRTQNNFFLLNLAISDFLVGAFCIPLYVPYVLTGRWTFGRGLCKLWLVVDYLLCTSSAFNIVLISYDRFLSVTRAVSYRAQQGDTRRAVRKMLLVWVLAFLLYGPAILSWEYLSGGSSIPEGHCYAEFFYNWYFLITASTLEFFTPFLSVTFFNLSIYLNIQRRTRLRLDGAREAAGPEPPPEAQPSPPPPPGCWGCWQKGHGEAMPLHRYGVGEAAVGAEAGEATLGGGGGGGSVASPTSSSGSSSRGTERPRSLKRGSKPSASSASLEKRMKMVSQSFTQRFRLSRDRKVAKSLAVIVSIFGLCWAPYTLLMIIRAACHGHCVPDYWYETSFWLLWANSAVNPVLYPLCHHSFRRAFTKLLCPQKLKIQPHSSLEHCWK

| Structure (SMILES) | Ki [nM] |
| --- | --- |
| c1ccc(-c2nc3ccccc3n2Cc2ccc(-c3nc(CN4CCCCC4)co3)cc2)cc1 [Example 123, 2-phenyl-1-{4-[4-(piperidin-1-ylmethyl)-1,3-oxazol-2-yl]benzyl}-1H-benzimidazole] | ≤ 10 |
| Cn1c(CN2CCCC2)cnc1-c1ccc(Cn2cnc3ccccc32)cc1 [Example 139, 1-[4-(1-Methyl-5-pyrrolidin-1-ylmethyl-1H-imidazol-2-yl)-benzyl]-1H-benzoimidazole fumarate salt] | 50.1 to 100 |
| C[C@H]1CCCN1Cc1cnc(-c2ccc(Cn3cnc4ccccc43)cc2)n1C [Example 140, (5)-1-(4-(1-methyl-5-((2-methylpyrrolidin-1-yl)methyl)-1H-imidazol-2-yl)benzyl)-1H-benzo[d]imidazole fumarate salt] | ≤ 10 |
| Cn1c(CN2CCCC2)cnc1-c1ccccc1 [Example 143, 1-Methyl-2-phenyl-5-pyrrolidin-1-ylmethyl-1H-imidazole fumarate salt] | > 100 |

Results, then the molecule that gave them:

| Ki [nM] | Structure (SMILES) |
| --- | --- |
| > 100 | Cn1c(CN2CCCC2)cnc1-c1ccc(C#N)cc1 [Example 144, 4-(1-Methyl-5-pyrrolidin-1-ylmethyl-1H-imidazol-2-yl)-benzonitrile fumarate salt] |
| > 100 | Cn1c(CN2CCCC2)cnc1-c1ccc(F)cc1 [Example 145, 2-(4-Fluoro-phenyl)-1-methyl-5-pyrrolidin-1-ylmethyl-1H-imidazole fumarate salt] |
| > 100 | Cn1c(CN2CCCC2)cnc1-c1ccc(-c2ccccc2)cc1 [Example 146, 2-Biphenyl-4-yl-1-methyl-5-pyrrolidin-1-ylmethyl-1H-imidazole fumarate salt] |
| ≤ 10 | Cn1c(CN2CCCC2)cnc1-c1ccc(-n2cnc3ccccc32)cc1 [Example 151, 1-[4-(1-Methyl-5-pyrrolidin-1-ylmethyl-1H-imidazol-2-yl)-phenyl]-1H-benzoimidazole fumarate salt] |
